Measurements from PubChem BioAssay AID1845216 (Molecular Pharmacology Branch, DTP, NCI, 2023).

System: SW 982 tumor spheroid viability
Experiment: Anticancer human tumor SW 982 cell line growth inhibition;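 further: spheroids exposed to compound for 7 days before readout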
Details: spheroids with HUVEC and MSC; for IC50: curve of first compound; for viability, T/C: stronger effect = lower value
Source text: Multicellular complex tumor spheroid response to DNA repair inhibitors in combination with DNA-damaging drugs
This study explores the anticancer activities of DNA-damaging drugs and inhibitors of DNA damage repair, both as single agents and in combinations. Complex tumor spheroids comprised of malignant cells, endothelial cells and mesenchymal stem cells served as an in vitro model for human solid tumors. This model system incorporates physiologically relevant features and patient-derived or established malignant cell lines with clinically relevant genetic alterations from many tumor types. Twenty-six patient-derived or established malignant cell lines were evaluated representing sarcoma, melanoma, small cell lung cancer (SCLC), non-small cell lung cancer (NSCLC), as well as bladder, ovarian and pancreatic cancers. The concentration ranges selected for each drug and investigational agent were based upon clinically achievable concentrations if the clinical Cmax of the agent was known.
Compounds. The drugs and compounds olaparib (NSC753686), talazoparib (NSC767125), berzosertib (NSC777718), elimusertib (NSC800525), nedisertib (NSC802822), VX-984 (NSC792969), AZD-1390 (NSC803789), temozolomide (NSC362856), topotecan (NSC609699), trabectedin (NSC813783), staurosporine (NSC755774), and gemcitabine (NSC613327) were obtained from the National Cancer Institute (NCI) Developmental Therapeutics Program Chemical Repository. The FDA-approved anticancer drug set is available from the Developmental Therapeutics Program at https://dtp.cancer.gov/organization/dscb/obtaining/available_plates.htm. […] The stock solutions were prepared in dimethyl sulfoxide (DMSO, Sigma-Aldrich, St. Louis, MO, cat. D2650) at 400-fold the tested concentration and stored at -70 degrees C. Prior to their use, the stock solutions were diluted in fresh medium and the final DMSO concentration in the assay was 0.25% (v/v). All drugs and investigational agents were tested over a range starting from a high concentration at or near the clinical Cmax and decreasing in half-log increments. If the clinical Cmax for an agent had not been determined, the highest concentration tested was 10 microM.
Cell Lines. The patient-derived cancer cell (PDC) lines: 156681-154-R-J1-PDC, 283228-195-R-J1-PDC, 287954-098-R-J1-PDC, 292921-168-R-J2-PDC, 349418-098-R-PDC, 425362-245-T-J1-PDC, 556581-035-R-J1-PDC, and BL0293-F563-PDC were received from the NCI Patient-Derived Models Repository (PDMR, https://pdmr.cancer.gov). The established cell lines HS-SY-2 (RRID:CVCL_8719), MPNST, and SYO-1 (RRID:CVCL_7146) were obtained from the Sloan Kettering Institute. The alveolar soft parts sarcoma cell line ASPS-1 (RRID:CVCL_S738) was established at the NCI and grown from internal seed stocks. The following established cell lines were purchased from the American Type Culture Collection (ATCC, Manassas, VA): G-401 (ATCC, cat. CRL-1441, RRID:CVCL_0270), SW982 (ATCC, cat. HTB-93, RRID:CVCL_1734), VA-ES-BJ (ATCC, cat. CRL-2138, RRID:CVCL_1785), NCI-H719 (ATCC, cat. CRL-5837, RRID:CVCL_1582), NCI-H196 (ATCC, cat. CRL-5823, RRID:CVCL_1509), NCI-H841 (ATCC, cat. CRL-5845, RRID:CVCL_1595), NCI-H1618 (ATCC, cat. CRL-5879, RRID:CVCL_1480), NCI-H1876 (ATCC, cat. CRL-5902, RRID:CVCL_1503), DMS 114 (ATCC, cat. CRL-2066; RRID:CVCL_1174), NCI-H211 (ATCC, cat. CRL-5824; RRID:CVCL_1529), and SW 1271 (ATCC, cat. CRL-2177, RRID:CVCL_1716). The small cell lung cancer cell line COR-L88 was purchased from Sigma-Aldrich (cat. 92031917-1VL, RRID:CVCL_1141). The non-small cell lung cancer cell lines NCI-H226 (RRID:CVCL_1544) and NCI-H322M (RRID:CVCL_1557) were established at the NCI and grown from internal seed stocks. Pooled donor human umbilical vein endothelial cells (HUVEC, Lonza, cat. CC-2519) and human mesenchymal stem cells (hMSC, Lonza, cat. PT-2501) were purchased from Lonza (Walkersville, MD).
Cell Culture. All cells were maintained in an incubator at 37 degrees C and 5% CO2 with 95% humidity. […]

[1] = second compound 0.003 µM, first compound 0.00949 µM
[2] = second compound 0.003 µM, first compound 0.03 µM
[3] = second compound 0.003 µM, first compound 0.0949 µM
[4] = second compound 0.003 µM, first compound 0.3 µM
[5] = second compound 0.003 µM, first compound 0.949 µM
[6] = second compound 0.003 µM, first compound 3 µM
[7] = second compound 0.00949 µM, first compound 0.00949 µM
[8] = second compound 0.00949 µM, first compound 0.03 µM
[9] = second compound 0.00949 µM, first compound 0.0949 µM
[10] = second compound 0.00949 µM, first compound 0.3 µM
[11] = second compound 0.00949 µM, first compound 0.949 µM
[12] = second compound 0.00949 µM, first compound 3 µM
[13] = second compound 0.03 µM, first compound 0.00949 µM
[14] = second compound 0.03 µM, first compound 0.03 µM
[15] = second compound 0.03 µM, first compound 0.0949 µM
[16] = second compound 0.03 µM, first compound 0.3 µM
[17] = second compound 0.03 µM, first compound 0.949 µM
[18] = second compound 0.03 µM, first compound 3 µM
[19] = second compound 0.0949 µM, first compound 0.00949 µM
[20] = second compound 0.0949 µM, first compound 0.03 µM
[21] = second compound 0.0949 µM, first compound 0.0949 µM
[22] = second compound 0.0949 µM, first compound 0.3 µM
[23] = second compound 0.0949 µM, first compound 0.949 µM
[24] = second compound 0.0949 µM, first compound 3 µM
[25] = second compound 0.3 µM, first compound 0.00949 µM
[26] = second compound 0.3 µM, first compound 0.03 µM
[27] = second compound 0.3 µM, first compound 0.0949 µM
[28] = second compound 0.3 µM, first compound 0.3 µM
[29] = second compound 0.3 µM, first compound 0.949 µM
[30] = second compound 0.3 µM, first compound 3 µM

CNCc1ccc(-c2cc(-c3nc(-c4ccc(S(=O)(=O)C(C)C)cc4)cnc3N)on2)cc1 + CC[C@@]1(O)C(=O)OCc2c1cc1n(c2=O)Cc2cc3c(CN(C)C)c(O)ccc3nc2-1
IC50 (second compound 0.003 µM): 207 nM
IC50 (second compound 0.00949 µM): 207 nM
IC50 (second compound 0.03 µM): 180 nM
IC50 (second compound 0.0949 µM): 134 nM
IC50 (second compound 0.3 µM): 48.6 nM
viability, T/C [1]: 96.2%
viability, T/C [2]: 91%
viability, T/C [3]: 66.1%
viability, T/C [4]: 36.4%
viability, T/C [5]: 33.8%
viability, T/C [6]: 11.2%
viability, T/C [7]: 81.5%
viability, T/C [8]: 85.8%
viability, T/C [9]: 69.5%
viability, T/C [10]: 37.8%
viability, T/C [11]: 28.6%
viability, T/C [12]: 12.7%
viability, T/C [13]: 80%
viability, T/C [14]: 79.1%
viability, T/C [15]: 61%
viability, T/C [16]: 37.7%
viability, T/C [17]: 32.4%
viability, T/C [18]: 17.5%
viability, T/C [19]: 83.3%
viability, T/C [20]: 75.9%
viability, T/C [21]: 57.2%
viability, T/C [22]: 31.8%
viability, T/C [23]: 25.1%
viability, T/C [24]: 12.4%
viability, T/C [25]: 53.1%
viability, T/C [26]: 57.2%
viability, T/C [27]: 45.5%
viability, T/C [28]: 23.8%
viability, T/C [29]: 20.2%
viability, T/C [30]: 6.34%

Cn1ncnc1[C@H]1c2n[nH]c(=O)c3cc(F)cc(c23)N[C@@H]1c1ccc(F)cc1 + CC[C@@]1(O)C(=O)OCc2c1cc1n(c2=O)Cc2cc3c(CN(C)C)c(O)ccc3nc2-1
IC50 (second compound 0.003 µM): > 3000 nM
IC50 (second compound 0.00949 µM): > 3000 nM
IC50 (second compound 0.03 µM): > 3000 nM
IC50 (second compound 0.0949 µM): 1640 nM
IC50 (second compound 0.3 µM): < 9.49 nM
viability, T/C [1]: 93.5%
viability, T/C [2]: 83.8%
viability, T/C [3]: 83.4%
viability, T/C [4]: 82.4%
viability, T/C [5]: 86.5%
viability, T/C [6]: 64.9%
viability, T/C [7]: 91.5%
viability, T/C [8]: 81.9%
viability, T/C [9]: 82.5%
viability, T/C [10]: 84.8%
viability, T/C [11]: 92.1%
viability, T/C [12]: 62.9%
viability, T/C [13]: 70.7%
viability, T/C [14]: 73.7%
viability, T/C [15]: 70.6%
viability, T/C [16]: 73.5%
viability, T/C [17]: 62%
viability, T/C [18]: 57.7%
viability, T/C [19]: 60.6%
viability, T/C [20]: 56%
viability, T/C [21]: 60.9%
viability, T/C [22]: 59.5%
viability, T/C [23]: 58.2%
viability, T/C [24]: 40.9%
viability, T/C [25]: 43.5%
viability, T/C [26]: 45.4%
viability, T/C [27]: 41.9%
viability, T/C [28]: 41.9%
viability, T/C [29]: 37.3%
viability, T/C [30]: 25.1%

O=C(c1cc(Cc2n[nH]c(=O)c3ccccc23)ccc1F)N1CCN(C(=O)C2CC2)CC1 + CC[C@@]1(O)C(=O)OCc2c1cc1n(c2=O)Cc2cc3c(CN(C)C)c(O)ccc3nc2-1
IC50 (second compound 0.003 µM): 23700 nM
IC50 (second compound 0.00949 µM): 22500 nM
IC50 (second compound 0.03 µM): 17700 nM
IC50 (second compound 0.0949 µM): 10500 nM
IC50 (second compound 0.3 µM): < 94.9 nM
viability, T/C [3]: 83.3%
viability, T/C [4]: 80.5%
viability, T/C [5]: 84.1%
viability, T/C [6]: 78.9%
viability, T/C (second compound 0.003 µM, first compound 9.49 µM): 66.6%
viability, T/C (second compound 0.003 µM, first compound 30 µM): 45.7%
viability, T/C [9]: 85.6%
viability, T/C [10]: 83.8%
viability, T/C [11]: 87.1%
viability, T/C [12]: 78%
viability, T/C (second compound 0.00949 µM, first compound 9.49 µM): 73.7%
viability, T/C (second compound 0.00949 µM, first compound 30 µM): 42.2%
viability, T/C [15]: 72.6%
viability, T/C [16]: 76.3%
viability, T/C [17]: 81.8%
viability, T/C [18]: 75.8%
viability, T/C (second compound 0.03 µM, first compound 9.49 µM): 60.5%
viability, T/C (second compound 0.03 µM, first compound 30 µM): 41.1%
viability, T/C [21]: 63.6%
viability, T/C [22]: 66.3%
viability, T/C [23]: 59.7%
viability, T/C [24]: 60.2%
viability, T/C (second compound 0.0949 µM, first compound 9.49 µM): 49.6%
viability, T/C (second compound 0.0949 µM, first compound 30 µM): 39.4%
viability, T/C [27]: 36.2%
viability, T/C [28]: 43.4%
viability, T/C [29]: 43.3%
viability, T/C [30]: 39.6%
viability, T/C (second compound 0.3 µM, first compound 9.49 µM): 31.1%
viability, T/C (second compound 0.3 µM, first compound 30 µM): 17.6%
